From PMC10854695, “Using Flavonoid Substitution Status to Predict Anticancer Effects in Human Melanoma Cancers: An In Vitro Study” (Cancers, 2024)

Tests used:
[1] = MTT cell viability assay, normal cells; details: human, human skin fibroblasts (CCD25Sk);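 further: fibroblasts served as non-cancer comparison line for selectivity versus melanoma cells, MTT reduction read as absorbance at 570 nm after 2 h dye exposure, compounds in ≤0.1% DMSO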
Method: (§1) The MTT colorimetric assay was performed as a preliminary evaluation of the cytotoxicity of the selected flavonoids according to the method described and validated by Strawa et al. [21]. Briefly, melanoma cells and fibroblasts were seeded in 96-well microplates at a density of 1 × 10^4 cells per well. Fibroblasts were used as a control cell line in order to assess the selectivity of the compounds. […] Subsequently, the cells were washed with PBS, incubated with MTT solution for 2 h, and lysed with dimethyl sulfoxide (DMSO) supplemented with 1% (v/v) Sorensen’s glycine buffer. The absorbance was measured using a microplate reader (EPOCH 2, BioTek, Winooski, VT, USA) at a wavelength of 570 nm. The compounds were used at a final DMSO concentration of no more than 0.1% (v/v) in each well. The results were generated from at least three independent experiments. […] The IC50 values were calculated with GraphPad Prism 9 software (GraphPad Software, San Diego, CA, USA).

A375 melanoma cells [2] = assay: Neutral red uptake (NRU) assay, A375; details: Homo sapiens, read-out: IC50, cytotoxic activity, NRU assay
C32 melanoma cells [3] = assay: MTT cell viability assay, C32; details: Homo sapiens, read-out: IC50, cytotoxic activity, MTT test;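 further: MTT added for 2 h, cells lysed in DMSO, absorbance read at 570 nm, compound vehicle kept at or below 0.1% DMSO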
Method: as §1

C32 melanoma cells [4] = assay: Neutral red uptake (NRU) assay, C32; details: Homo sapiens
Method: The NRU (neutral red uptake) was conducted as previously described by Szoka and co-workers, with some modifications [22]. Briefly, melanoma cells and fibroblasts were seeded in microplates at the density of 1 × 10^4 cells per well and allowed to adhere for 24 h. […] After treatment, the culture medium was replaced with a neutral red solution (40 µg/mL). An additional 2 h of incubation was performed. The neutral red solution was then removed and the neutral red accumulated in the cells was dissolved in 50% EtOH with 1% of the glacial acetic acid. The absorbance was estimated at 540 nm and IC50 values were calculated using GraphPad Prism software (GraphPad Software, San Diego, CA, USA).

[5] = Neutral red uptake (NRU) assay, normal cells; details: human, human skin fibroblasts (CCD25Sk)
A375 melanoma cells [6] = assay: MTT cell viability assay, A375; details: Homo sapiens;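 further: Read-out is formazan absorbance at 570 nm after 2 h with MTT, with compounds in at most 0.1% v/v DMSO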
Method: as §1

[7] = C32, 24 h, read-out: IC50, cytotoxic activity, NRU assay, C32, 24 h
[8] = C32, 48 h, read-out: IC50, cytotoxic activity, NRU assay, C32, 48 h
[9] = C32, 72 h, read-out: IC50, cytotoxic activity, NRU assay, C32, 72 h
[10] = A-375, 24 h, read-out: IC50, cytotoxic activity, MTT test, A375, 24 h
[11] = A-375, 48 h, read-out: IC50, cytotoxic activity, MTT test, A375, 48 h
[12] = A-375, 72 h, read-out: IC50, cytotoxic activity, MTT test, A375, 72 h

Work on O=c1cc(-c2ccc(O)cc2)oc2c([C@@H]3O[C@H](CO)[C@@H](O)[C@H](O)[C@H]3O)c(O)cc(O)c12 [Compound 2, apigenin 8-C-glucoside] yielded an IC50 at 24 h [1] greater than 200 µM, an IC50 at 48 h [1] greater than 200 µM and an IC50 at 72 h [1] greater than 200 µM. The IC50 (A375 melanoma cells [2]; A-375, 24 h) was greater than 200 µM, the IC50 (A375 melanoma cells [2]; A-375, 48 h) was greater than 200 µM and the IC50 (A375 melanoma cells [2]; A-375, 72 h) was greater than 200 µM. It also gave an IC50 (C32 melanoma cells [3]; C32, 24 h) greater than 200 µM, an IC50 (C32 melanoma cells [3]; C32, 48 h) greater than 200 µM and an IC50 (C32 melanoma cells [3]; C32, 72 h) greater than 200 µM. For the same molecule, the IC50 (C32 melanoma cells [4]; [7]) was greater than 200 µM, the IC50 (C32 melanoma cells [4]; [8]) was greater than 200 µM and the IC50 (C32 melanoma cells [4]; [9]) was greater than 200 µM. For the same molecule, the IC50 at 24 h [5] was greater than 200 µM, the IC50 at 48 h [5] was greater than 200 µM and the IC50 at 72 h [5] was greater than 200 µM. For the same molecule, the IC50 (A375 melanoma cells [6]; [10]) was greater than 200 µM, the IC50 (A375 melanoma cells [6]; [11]) was greater than 200 µM and the IC50 (A375 melanoma cells [6]; [12]) was greater than 200 µM.
Molecule O=c1cc(-c2ccc(O)cc2)oc2cc(OC3OC(CO)C(O)C(O)C3O)cc(O)c12 (stereo not drawn) [Compound 3, apigenin 7-O-glucoside] has an IC50 at 24 h [1] greater than 200 µM, an IC50 at 48 h [1] greater than 200 µM and an IC50 at 72 h [1] greater than 200 µM. It also gave an IC50 (A375 melanoma cells [2]; A-375, 24 h) greater than 200 µM, an IC50 (A375 melanoma cells [2]; A-375, 48 h) greater than 200 µM and an IC50 (A375 melanoma cells [2]; A-375, 72 h) greater than 200 µM. It also gave an IC50 (C32 melanoma cells [3]; C32, 24 h) greater than 200 µM, an IC50 (C32 melanoma cells [3]; C32, 48 h) greater than 200 µM and an IC50 (C32 melanoma cells [3]; C32, 72 h) greater than 200 µM. The IC50 (C32 melanoma cells [4]; [7]) was greater than 200 µM, the IC50 (C32 melanoma cells [4]; [8]) was greater than 200 µM and the IC50 (C32 melanoma cells [4]; [9]) was greater than 200 µM. The IC50 at 24 h [5] was greater than 200 µM, the IC50 at 48 h [5] was greater than 200 µM and the IC50 at 72 h [5] was greater than 200 µM. For the same molecule, the IC50 (A375 melanoma cells [6]; [10]) was greater than 200 µM, the IC50 (A375 melanoma cells [6]; [11]) was greater than 200 µM and the IC50 (A375 melanoma cells [6]; [12]) was greater than 200 µM.
With O=C(O)C1OC(Oc2cc(O)c3c(=O)cc(-c4ccc(O)cc4)oc3c2)C(O)C(O)C1O (stereo not drawn) [Compound 4, apigenin 7-O-glucuronide] the IC50 at 24 h [1] was greater than 200 µM, the IC50 at 48 h [1] was greater than 200 µM and the IC50 at 72 h [1] was greater than 200 µM. For the same molecule, the IC50 (A375 melanoma cells [2]; A-375, 24 h) was greater than 200 µM, the IC50 (A375 melanoma cells [2]; A-375, 48 h) was greater than 200 µM and the IC50 (A375 melanoma cells [2]; A-375, 72 h) was greater than 200 µM. For the same molecule, the IC50 (C32 melanoma cells [3]; C32, 24 h) was greater than 200 µM, the IC50 (C32 melanoma cells [3]; C32, 48 h) was greater than 200 µM and the IC50 (C32 melanoma cells [3]; C32, 72 h) was greater than 200 µM. It also gave an IC50 (C32 melanoma cells [4]; [7]) greater than 200 µM, an IC50 (C32 melanoma cells [4]; [8]) greater than 200 µM and an IC50 (C32 melanoma cells [4]; [9]) greater than 200 µM. The IC50 at 24 h [5] was greater than 200 µM, the IC50 at 48 h [5] was greater than 200 µM and the IC50 at 72 h [5] was greater than 200 µM. For the same molecule, the IC50 (A375 melanoma cells [6]; [10]) was greater than 200 µM, the IC50 (A375 melanoma cells [6]; [11]) was greater than 200 µM and the IC50 (A375 melanoma cells [6]; [12]) was greater than 200 µM.
With CC1OC(OCC2OC(Oc3cc(O)c4c(=O)cc(-c5ccc(O)cc5)oc4c3)C(O)C(O)C2O)C(O)C(O)C1O (stereo not drawn) [Compound 5, apigenin 7-O-rutinoside] the IC50 at 24 h [1] was greater than 200 µM, the IC50 at 48 h [1] was greater than 200 µM and the IC50 at 72 h [1] was greater than 200 µM. For the same molecule, the IC50 (A375 melanoma cells [2]; A-375, 24 h) was greater than 200 µM, the IC50 (A375 melanoma cells [2]; A-375, 48 h) was greater than 200 µM and the IC50 (A375 melanoma cells [2]; A-375, 72 h) was greater than 200 µM. It also gave an IC50 (C32 melanoma cells [3]; C32, 24 h) greater than 200 µM, an IC50 (C32 melanoma cells [3]; C32, 48 h) greater than 200 µM and an IC50 (C32 melanoma cells [3]; C32, 72 h) greater than 200 µM. The IC50 (C32 melanoma cells [4]; [7]) was greater than 200 µM, the IC50 (C32 melanoma cells [4]; [8]) was greater than 200 µM and the IC50 (C32 melanoma cells [4]; [9]) was greater than 200 µM. For the same molecule, the IC50 at 24 h [5] was greater than 200 µM, the IC50 at 48 h [5] was greater than 200 µM and the IC50 at 72 h [5] was greater than 200 µM. For the same molecule, the IC50 (A375 melanoma cells [6]; [10]) was greater than 200 µM, the IC50 (A375 melanoma cells [6]; [11]) was greater than 200 µM and the IC50 (A375 melanoma cells [6]; [12]) was greater than 200 µM.
O=c1c(O)c(-c2ccc(O)cc2)oc2cc(O)cc(O)c12 [Compound 18, kaempferol] showed an IC50 at 24 h [1] of 100 to 200 µM, an IC50 at 48 h [1] of 100 to 200 µM and an IC50 at 72 h [1] of 55.8 ± 4.5 µM. For the same molecule, the IC50 (A375 melanoma cells [2]; A-375, 24 h) was 100 to 200 µM, the IC50 (A375 melanoma cells [2]; A-375, 48 h) was 57.4 ± 4.6 µM and the IC50 (A375 melanoma cells [2]; A-375, 72 h) was 47.7 ± 3.9 µM. The IC50 (C32 melanoma cells [3]; C32, 24 h) was 100 to 200 µM, the IC50 (C32 melanoma cells [3]; C32, 48 h) was 100 to 200 µM and the IC50 (C32 melanoma cells [3]; C32, 72 h) was 58.4 ± 3.5 µM. For the same molecule, the IC50 (C32 melanoma cells [4]; [7]) was greater than 200 µM, the IC50 (C32 melanoma cells [4]; [8]) was 62.8 ± 3.5 µM and the IC50 (C32 melanoma cells [4]; [9]) was 34.4 ± 2.9 µM. For the same molecule, the IC50 at 24 h [5] was greater than 200 µM, the IC50 at 48 h [5] was 69.8 ± 5.8 µM and the IC50 at 72 h [5] was 51.1 ± 3.2 µM. For the same molecule, the IC50 (A375 melanoma cells [6]; [10]) was 100 to 200 µM, the IC50 (A375 melanoma cells [6]; [11]) was 100 to 200 µM and the IC50 (A375 melanoma cells [6]; [12]) was 75.8 ± 5.8 µM.
For COc1c(O)cc(O)c2c(=O)c(O)c(-c3ccc(O)cc3)oc12 [Compound 19, 8-methoxykaempferol], the IC50 at 24 h [1] was greater than 200 µM, the IC50 at 48 h [1] was greater than 200 µM and the IC50 at 72 h [1] was 100 to 200 µM. For the same molecule, the IC50 (A375 melanoma cells [2]; A-375, 24 h) was 100 to 200 µM, the IC50 (A375 melanoma cells [2]; A-375, 48 h) was 100 to 200 µM and the IC50 (A375 melanoma cells [2]; A-375, 72 h) was 100 to 200 µM. For the same molecule, the IC50 (C32 melanoma cells [3]; C32, 24 h) was 100 to 200 µM, the IC50 (C32 melanoma cells [3]; C32, 48 h) was 100 to 200 µM and the IC50 (C32 melanoma cells [3]; C32, 72 h) was 100 to 200 µM. For the same molecule, the IC50 (C32 melanoma cells [4]; [7]) was 100 to 200 µM, the IC50 (C32 melanoma cells [4]; [8]) was 88.8 ± 7 µM and the IC50 (C32 melanoma cells [4]; [9]) was 71.9 ± 7 µM. The IC50 at 24 h [5] was greater than 200 µM, the IC50 at 48 h [5] was greater than 200 µM and the IC50 at 72 h [5] was 64.8 ± 5 µM. The IC50 (A375 melanoma cells [6]; [10]) was 100 to 200 µM, the IC50 (A375 melanoma cells [6]; [11]) was 100 to 200 µM and the IC50 (A375 melanoma cells [6]; [12]) was 61.8 ± 3.1 µM.
Molecule O=c1c(O[C@@H]2O[C@H](CO)[C@@H](O)[C@H](O)[C@H]2O)c(-c2ccc(O)cc2)oc2cc(O)cc(O)c12 [Compound 20, kaempferol 3-O-glucoside] has an IC50 at 24 h [1] greater than 200 µM, an IC50 at 48 h [1] greater than 200 µM and an IC50 at 72 h [1] greater than 200 µM. It also gave an IC50 (A375 melanoma cells [2]; A-375, 24 h) greater than 200 µM, an IC50 (A375 melanoma cells [2]; A-375, 48 h) greater than 200 µM and an IC50 (A375 melanoma cells [2]; A-375, 72 h) greater than 200 µM. The IC50 (C32 melanoma cells [3]; C32, 24 h) was greater than 200 µM, the IC50 (C32 melanoma cells [3]; C32, 48 h) was greater than 200 µM and the IC50 (C32 melanoma cells [3]; C32, 72 h) was greater than 200 µM. The IC50 (C32 melanoma cells [4]; [7]) was greater than 200 µM, the IC50 (C32 melanoma cells [4]; [8]) was greater than 200 µM and the IC50 (C32 melanoma cells [4]; [9]) was greater than 200 µM. It also gave an IC50 at 24 h [5] greater than 200 µM, an IC50 at 48 h [5] greater than 200 µM and an IC50 at 72 h [5] greater than 200 µM. It also gave an IC50 (A375 melanoma cells [6]; [10]) of 94.2 ± 6.9 µM, an IC50 (A375 melanoma cells [6]; [11]) of 46.9 ± 3.5 µM and an IC50 (A375 melanoma cells [6]; [12]) of 21.5 ± 2.2 µM.
